Test results reported in paper PMC5458211, “Mitochondrial VDAC1-based peptides: Attacking oncogenic properties in glioblastoma” (Oncotarget, 2017).
Non-standard residues stand in square brackets, D forms with d. Residues, ends and D or L forms follow the SMILES beside them.

How the values were obtained:
[1] = tested on: U-87MG cells; test: Morphological analysis of apoptosis by electron microscopy; format: cell-based, human; details: 6 h, serum-free medium, Suppl Fig 2C
Procedure: Supplementary Figure 2: Mode of action of VDAC1-based peptides. […]
detachment. SH-SY5Y cells (4×10^4/ml) were grown on cover slips, transfected with plasmid pEGFP-HK-I and after 24 h, were incubated […]
The final DMSO concentration in control and peptide-treated cells was 0.07%. Fixed cells were stained with DAPI and visualized by confocal microscopy (Olympus 1X81). Arrows indicate cells […]
showing diffusion of HK-I-GFP. B-C. […] B. SH-SY5Y cells were treated with the indicated […]
Arrows and arrowheads indicate cells with membrane blebbing (early apoptotic state) and late apoptotic states, respectively. C. Morphological analysis of apoptosis by electron microscopy (EM). For transmission EM, U-87MG cells (1.6 x10^6 /ml) were incubated with the indicated concentrations of D-ΔN-Ter-Antp peptide or DMSO (0.3% final concentration) for 6 h in serum-free medium. Cells were pelleted and fixed in Karnovsky’s fixative (2% paraformaldehyde, 2.5% glutaraldehyde in 0.1 M cacodylate buffer, pH 7.4) for 10 minutes at room temperature and then in fresh fixative for 3.5 days in the cold. Following buffer rinses, the cells were incubated with 1% osmium tetroxide in 0.1 M cacodylate buffer, dehydrated in an ethanol series, incubated with epoxy propane and embedded in Araldite resin. […]

[2] = tested on: U-87MG intracranial xenograft tumors; test: U-87MG intracranial-orthotopic xenograft, tumor volume by MRI; format: in vivo, human U-87MG in nude mice
Procedure: B. U-87MG cells (2×10^5) were incubated for 12 h with the indicated concentrations of DMSO, Retro-Tf-D-LP4 peptide (Pep), or Retro-Tf-D-LP4 encapsulated in PLGA nanoparticles (PLGA-Pep). Samples of Retro-Tf-D-LP4 encapsulated in PLGA nanoparticles were centrifuged (15000g, 5 min) to separate the supernatant (Sup), containing free peptide, and the pellet, containing encapsulated Retro-Tf-D-LP4 peptide. Cell death was analyzed by PI staining and FACS analysis. C. Graphical representation of the orthotopic animal experiment. D. MRI imaging of brains 29 days post-intravenal treatment start with DMSO (1.05%), Retro-Tf-D-LP4 (10 mg/kg) encapsulated in PLGA nanoparticles or Tf-D-Retro-LP4 peptide (10 mg/Kg), as described in Materials and Methods available online in Supplemental information. E. Calculated tumor volumes after 20 (dark grey bars) and 29 (light grey bars) days post-treatment start. Results = mean ± SE (n = 6) (* p<0.05, *** p<0.001). F. Kaplan-Meier survival curves showing statistically significant differences in survival curves between the PBS/DMSO and Retro-Tf-D-LP4 treated mice. Cumulative Kaplan-Meier survival curves of control mice (red line), Retro-Tf-D-LP4 peptide (10mg/kg) encapsulated in PGLA nanoparticles (black line, ** p=0.006) or Retro-Tf-D-LP4 peptide (10 mg/kg, pink line, *** p=0.0003). The arrow indicates the end of the peptide treatment (day 46).
For the intracranial-orthotopic xenograft mouse model, U-87MG cells (8×10^4) were engrafted into a nude mouse brain using a stereotactic device. Forty eight hours after surgery, mice were randomized into three groups (6 animals/group) and treated every third day with DMSO (1.44%), Retro-Tf-D-LP4 (10mg/Kg) or Retro-Tf-D-LP4 (10mg/Kg) encapsulated by PLGA. Mice were subjected to MRI, sacrificed; brains were excised and processed for IHC. Tumor volume was analyzed using VivoQuant 2.10 software.
PLGA encapsulation of the VDAC1-based minutes using an UltraMicroPump III (World Precision peptide Retro-Tf-D-LP4 Instruments, Sarasota, FL). After infusion, the needle was left in place for 1 minute before slow withdrawal. The burr […]
100% DMSO and then diluted 20-fold with sterile DDW into three groups (6 animals/group) and treated every to reach a concentration of 25 mg/ml in a final DMSO third day with DMSO (1.44%), Retro-Tf-D-LP4 (10 concentration of 5%. PLGA (50 mg) was dissolved in mg/kg) or Retro-Tf-D-LP4 (10 mg/kg) encapsulated by acetone (1 ml). […] Tumor volume was analyzed using VivoQuant 2.10 10 ml of aqueous solution containing 1% PVA (w/v). […]
of the experiments, the mice were sacrificed, tumors were IHC of tumor tissue sections excised and ex vivo weight was determined. […]

SMILES: CC[C@@H](C)[C@@H](NC(=O)[C@@H](CCCCN)NC(=O)[C@H](NC(=O)[C@@H](CCC(N)=O)NC(=O)[C@@H](CCCNC(=N)N)NC(=O)[C@@H](CC(C)C)NC(=O)CNC(=O)[C@@H](Cc1ccccc1)NC(=O)CNC(=O)[C@@H](Cc1ccc(O)cc1)NC(=O)CNC(=O)[C@@H](CCCCN)NC(=O)[C@H](NC(=O)[C@@H](Cc1ccccc1)NC(=O)[C@H](NC(=O)[C@@H](CC(=O)O)NC(=O)[C@H](N)CCCNC(=N)N)C(C)C)[C@H](C)O)[C@H](C)CC)C(=O)N[C@H](Cc1c[nH]c2ccccc12)C(=O)N[C@H](Cc1ccccc1)C(=O)N[C@H](CCC(N)=O)C(=O)N[C@H](CC(N)=O)C(=O)N[C@H](CCCNC(=N)N)C(=O)N[C@H](CCCNC(=N)N)C(=O)N[C@H](CCSC)C(=O)N[C@H](CCCCN)C(=O)N[C@H](Cc1c[nH]c2ccccc12)C(=O)N[C@H](CCCCN)C(=O)N[C@H](CCCCN)C(=O)O [D-ΔN-Ter-Antp] (H-[dR][dD][dV][dF][dT][dK]G[dY]G[dF]G[dL][dR][dQ][dI][dK][dI][dW][dF][dQ][dN][dR][dR][dM][dK][dW][dK][dK]-OH; N-terminus and C-terminus assumed)
- apoptotic morphological changes (electron microscopy) [1]: condensation of nuclei, DNA fragmentation, and possible apoptotic body formation

SMILES: CC[C@H](C)[C@H](NC(=O)[C@H](Cc1ccc(O)cc1)NC(=O)[C@@H]1CCCN1C(=O)[C@H](CCCNC(=N)N)NC(=O)[C@H](Cc1c[nH]cn1)NC(=O)[C@H](CO)NC(=O)[C@H](Cc1c[nH]c2ccccc12)NC(=O)[C@@H](NC(=O)[C@H](Cc1c[nH]c2ccccc12)NC(=O)[C@H](CCC(=O)O)NC(=O)[C@@H](CCCCN)NC(=O)[C@@H](CCCCN)NC(=O)[C@@H](CC(C)C)NC(=O)[C@@H](CCC(=O)O)NC(=O)[C@H](NC(=O)[C@@H](C)NC(=O)[C@H](NC(=O)[C@@H](CC(N)=O)NC(=O)[C@@H](CC(C)C)NC(=O)[C@@H](C)NC(=O)[C@@H](Cc1c[nH]c2ccccc12)NC(=O)[C@H](NC(=O)[C@@H](C)NC(=O)CNC(=O)[C@@H](CC(N)=O)NC(=O)[C@@H](CO)NC(=O)[C@@H](CC(N)=O)NC(=O)[C@H](CCCCN)NC(=O)[C@H](Cc1c[nH]c2ccccc12)NC(=O)[C@@H](NC(=O)[C@H](Cc1c[nH]c2ccccc12)NC(=O)[C@@H](N)CCCCN)[C@@H](C)O)[C@H](C)O)C(C)C)[C@H](C)O)[C@@H](C)O)C(=O)N[C@@H](C)C(=O)N[C@@H](Cc1c[nH]cn1)C(=O)O [Retro-Tf-D-LP4]
- decrease in orthotopic xenograft tumor volume, day 20 ([2]; 10 mg/kg i.v., every third day, 20 days after start of treatment, MRI, n = 6): 60%
- decrease in orthotopic xenograft tumor volume, day 29 ([2]; 10 mg/kg i.v., every third day, 29 days after start of treatment, MRI, n = 6): 90%
- free vs PLGA-encapsulated peptide, effectiveness ([2]; intracranial model, tumor size and survival): more effective both in reducing tumor size and in prolonging mice survival
- reduction of tumor volume, maximum (Discussion) ([2]; intracranial-orthotopic xenograft, i.v., free peptide): up to 90%
